Measurements as given in paper PMC4002121, “Trimethylation of Histone H3 Lysine 36 by Human Methyltransferase PRDM9 Protein” (The Journal of Biological Chemistry, 2014).
Entries after “also recorded” stand apart in the source; their conditions may differ. Blank lines part the entries; values can stand above or below the molecule they belong to.

How the values were obtained:
PRDM9 [1] = molecular target: T1, PRDM9 (Homo sapiens, UniProt Q9NQV7); experiment: Isothermal titration calorimetry (ITC) binding to PRDM9; conditions: AdoMet 1 mM injected into 50 μM PRDM9, 25 °C, 20 mM Tris-HCl pH 8.5, one-binding site model
T1 construct: The wild-type PRDM9 gene (amino acids 195–385) was amplified by PCR; His tag (cleaved yes); made in house; host or cells: E. coli BL21(DE3)pRARE2-V2R
T1 sequence (Q9NQV7 195-385): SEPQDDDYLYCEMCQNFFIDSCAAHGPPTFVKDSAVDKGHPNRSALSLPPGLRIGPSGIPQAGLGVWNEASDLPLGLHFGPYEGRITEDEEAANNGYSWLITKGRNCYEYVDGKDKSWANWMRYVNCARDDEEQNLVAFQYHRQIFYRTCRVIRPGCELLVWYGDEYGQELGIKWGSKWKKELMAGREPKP
Description: Purified PRMD9 was dialyzed overnight in 20 mM Tris-HCl buffer, pH 8.5. […] ITC titrations were performed on a VP-ITC Micro Calorimeter from GE Healthcare at 25 °C by using 10-μl injections with a total of 25 injections. Data were fitted with a one-binding site model using Microcal Origin software.
FIGURE 7. […] Experiments were performed in duplicate.

PRDM9 [2] = molecular target: T1, PRDM9; experiment: Assay optimization: effect of pH, salt and additives on PRDM9 activity; assay type: biochemical
Description: Samples were incubated for 1 h at 23 °C and reactions were quenched by addition of 20 μl of 7.5 M guanidinium hydrochloride followed by addition of 160 μl of 20 mM Tris-HCl buffer, pH 8.0. Samples were added to wells of a streptavidin/scintillant-coated microplate (FlashPlate® PLUS: PerkinElmer Life Sciences).
FIGURE 3.

PRDM9 [3] = molecular target: T1, PRDM9; experiment: Screening PRDM9 against known histone methyltransferase inhibitor library; assay type: biochemical; conditions: 2.5 μM H3K36me2 peptide, 62 μM AdoMet, 1 nM PRDM9, 10 mM Tris-HCl pH 8.5, 10 mM DTT, 0.01% Triton X-100, 1% DMSO, 30 min, 23 °C; triplicate
Description: The Z-factor was determined to ensure the optimized assay was amenable to high-throughput screening in a 384-well format ([46]). […] PRDM9 was then screened against a small library of known histone methyltransferase inhibitors using H3K36me2 as substrate under optimized assay conditions. In this assay, 1 nM PRDM9 was incubated with 2.5 μM H3K36me2 peptide, 62 μM AdoMet in a reaction buffer (10 mM Tris-HCl, pH 8.5, 10 mM DTT, 0.01% Triton X-100) along with compounds ranging in concentrations from 0 to 100 μM, with a final DMSO concentration of 1%. Reactions were incubated at 23 °C for 30 min. The IC50 value was determined for suramin using SigmaPlot.
FIGURE 5. […] Experiments were performed in triplicate as described under “Experimental Procedures.”

PRDM9 [4] = conditions: cited from earlier work
Excerpt: Although PRDM9 H3K4 methyltransferase activity has been previously reported ([28]), to our knowledge its activity and substrate specificity have not been fully characterized. […] Our binding data also indicated tight H3K4 peptide binding (low micromolar). Previously, Hayashi et al. ([28]) reported that GST-PRDM9 specifically catalyzed met ...

PRDM9 [5] = molecular target: T1, PRDM9; experiment: PRDM9 substrate specificity, radioactivity-based histone peptide methylation assay; assay type: biochemical; conditions: 10 μM biotinylated peptide, 200 μM AdoMet, 1 nM PRDM9, 10 mM Tris-HCl pH 8.5, 0.01% Triton X-100, 10 mM DTT, 30 min, 23 °C; n = 4
Description: In this assay [^3H]AdoMet (PerkinElmer Life Sciences; catalog number NET155V250UC) was used as a methyl donor to methylate biotinylated histone peptide substrates. […] Samples were incubated for 30 min at 23 °C and the reaction was quenched by addition of 20 μl of 7.5 M guanidinium hydrochloride followed by addition of 160 μl of 20 mM Tris-HCl buffer, pH 8.0. Samples were added to wells of a streptavidin/scintillant-coated microplate (FlashPlate® PLUS; PerkinElmer Life Sciences). Biotinylated peptides would be captured in each well through their interaction with streptavidin, thereby bringing any incorporated [^3H]methyl in proximity of scintillant.
FIGURE 1. […] Data are presented as mean ± S.D. from four experiments.

HEK293 cells = experiment: H3K4 and H3K36 methylation in HEK293 cells overexpressing PRDM9, immunoblotting; assay type: cell-based, human; conditions: normalized to total H3
Description: A FLAG-tagged control vector or FLAG-tagged PRDM9 construct were transfected into HEK293 cells using GeneJuice (Novagen). Transfected cells were serum-deprived prior to lysis in 50 mM Tris-HCl, 400 mM NaCl, 1 mM EDTA, 0.1% SDS, and 1% Triton X-100 supplemented with protease inhibitors. 30 μg of total cell lysate were processed for Western blotting and immunoblotted using specific antibodies to monitor the levels of H3K36me1 (Abcam, ab9048), H3K36me2 (Cell signaling Technology, 2901), H3K36me3 (Cell Signaling Technology, number 9763), H3K4me1 (Cell Signaling Technology, 9723), H3K4me2 (Abcam, ab32356), H3K4me3 (Cell Signaling Technology, number 9727S), and total H3 (Abcam, ab10799). The transfection efficiency of FLAG-PRDM9 was controlled by using an anti-FLAG antibody (FLAG M2 monoclonal, Sigma). Membrane bands were visualized using LiCor IRDye, 680RD anti-rabbit and 800CW anti-mouse secondary antibodies.
FIGURE 8. Trimethylation of H3K4 and H3K36 by PRDM9 in cells. […] Methylation levels of Lys-4 and Lys-36 were quantified and normalized to their respective total H3 levels. FLAG-PRDM9-transfected samples were normalized to samples transfected with FLAG Control vector. IB, immunoblot; CTL, control.

sterile mouse hybrids = conditions: via baculovirus; cited from earlier work
Excerpt: PRDM9 is a PR domain-containing protein with multiple zinc fingers that catalyze trimethylation of H3K4 ([28]). It is a meiosis-specific protein that has been reported to control activation of the short highly recombinogenic segments called recombination hot spots ([50]). The H3K4me3 mark is often associated with transcriptional activation ([51], [52]) and DNA repair ([53]). This methyl mark is also associated with recombination hot spot initiation in yeast and mice ([35], [36]) where double strand breaks occur prior to crossover events. However, H3K4me3 marks associated with hot spots are dis ...

[6] = H3-(1–25) substrate 10 μM, 40 μM AdoMet, 100 nM PRDM9, 10 mM Tris-HCl pH 8.5, 1 h, 23 °C, n = 4
[7] = H3-(1–25) substrate, 10 mM Tris-HCl pH 8.5

Kd (PRDM9 [1]): 18.6 µM
Molecule: C[S+](CC[C@H](N)C(=O)[O-])C[C@H]1O[C@@H](n2cnc3c(N)ncnc32)[C@H](O)[C@@H]1O (stereo partly shown) [AdoMet, S-adenosylmethionine]

DMSO concentration of maximum PRDM9 activity (PRDM9 [2]; [7]): 0.16%
Molecule: C[S+](C)[O-] [DMSO, dimethyl sulfoxide]
effect on PRDM9 activity (in words) (PRDM9 [2]; [6]): maintained high levels of activity at all concentrations of DMSO

effect on PRDM9 activity (in words) (PRDM9 [2]; [6]): increase in enzyme activity
concentration of maximal PRDM9 activity (reducing agent) (PRDM9 [2]; [7]): 10 mM
Molecule: O[C@@H](CS)[C@@H](O)CS [DTT]

Molecule: [Cl-].[Na+] [NaCl]
NaCl concentration above which enzyme activity was abolished (PRDM9 [2]; [6]): above 125 mM
effect on PRDM9 activity (in words) (PRDM9 [2]; [6]): sharp decrease in activity with increasing NaCl concentrations

Molecule: O=C(O)CCP(CCC(=O)O)CCC(=O)O [TCEP, Tris(2-carboxyethyl)phosphine]
effect on PRDM9 activity (in words) (PRDM9 [2]; [6]): sharp decrease in activity at increasing TCEP concentrations
concentration of maximal PRDM9 activity (reducing agent) (PRDM9 [2]; [7]): 0.6 mM

IC50 (PRDM9 [3]): 4.1 ± 0.1 µM
Molecule: Cc1ccc(C(=O)Nc2ccc(S(=O)(=O)O)c3cc(S(=O)(=O)O)cc(S(=O)(=O)O)c23)cc1NC(=O)c1cccc(NC(=O)Nc2cccc(C(=O)Nc3cc(C(=O)Nc4ccc(S(=O)(=O)O)c5cc(S(=O)(=O)O)cc(S(=O)(=O)O)c45)ccc3C)c2)c1 [suramin]

Molecule: H3-(26–45): histone H3-(26–45) peptide on a peptide array
binding of PRDM9 to peptide on a peptide array (in words) (PRDM9 [4]): Binding

Molecule: H3K36A: H3-(21–44) peptide with Lys-36 mutated to alanine
PRDM9 methyltransferase activity with substrate (in words) (PRDM9 [5]): not when Lys-36 was trimethylated or mutated to alanine

PRDM9 methyltransferase activity with substrate (in words) (PRDM9 [5]): No activity
Molecule: K4A: K4A mutant of H3-(1–25) peptide

PRDM9 methyltransferase activity with substrate (in words) (PRDM9 [5]): No activity
Molecule: K4AK9A: K4AK9A mutant of H3-(1–25) peptide

Molecule: PRDM9: PR domain-containing protein 9, histone methyltransferase; FLAG-tagged in cells, residues 195–385 in vitro
mono- or dimethylation of H3K4 and H3K36 in cells (in words) (HEK293 cells; HEK293 cells overexpressing PRDM9): not mono- or dimethylation of either mark
trimethylation of H3K4 and H3K36 in cells (in words) (HEK293 cells; HEK293 cells transfected with FLAG-PRDM9 vs FLAG control vector): significant increase in trimethylation of H3K4 and H3K36; also recorded: significant increase in H3K36 trimethylation as well as H3K4 trimethylation
effect on sterile phenotype of mouse hybrids (in words) (sterile mouse hybrids): rescued the sterile phenotype

Triton X-100 concentration that dramatically improved signal to noise ratio (PRDM9 [2]; concentrations as low as, H3-(1–25) substrate, 10 mM Tris-HCl pH 8.5): ≥ 0.004%
Molecule: Triton X-100
effect on PRDM9 activity (in words) (PRDM9 [2]; [6]): Higher concentrations of Triton X-100 up to 0.25% did not further increase the activity
